The record followed here is patent US20230365572A1, “HYDROXYLBENZYL AZABICYCLO[2.2.1]HEPTAN-1-ANE DRIVATIVES AND MEDICAL USES THEREOF” (ATROGI AB, priority 2020, published 2023).

Structures can show the parent of a compound that is named as a salt. Where two headings read alike, the source gives them in different places.

What all share (type): cell-based
Assay [1] deals with L6-myotubes. Put plainly: Glucose uptake in L6-myotubes in the presence of the β2-antagonist ICI-118,551. To be noted: differentiated L6-myotubes, ICI-118,551 1×10^−5 M, compound 1×10^−5 M. How it is done:
L6-myoblasts were grown in Dulbecco's Modified Eagle's Medium (DMEM) containing 4.5 g/l glucose supplemented with 10% fetal bovine serum, 2 mM L-Glutamine, 50 U/ml penicillin, 50 1.1g/ml streptomycin and 10 mM HEPES. Cells were plated at 1×10^5 cells per ml in 24-well plates. After reaching 90% confluence the cells were grown in medium containing 2% FBS for 7 days where upon cells differentiated into myotubes. Differentiated L6-myotubes were serum-starved overnight in medium containing 0.5% fatty-acid free BSA and were incubated with the β2-adrenergic receptor antagonist ICI-118,551 at a final concentration of 1×10^−5 M for 30 min. The cells were stimulated with a compound of the invention, at a final concentration of 1×10^−5 M. After 1 h 40 min the cells were washed twice with warm, glucose free medium or PBS and additional portions of the compound of the invention and the antagonist were added. After 20 min the cells were exposed to 50 nM ^3H-2-deoxyglucose for 10 min before washed with ice cold glucose free medium or PBS three times and lysed with 0.2 M NaOH, 400 μL/well, for 1 h at 60° C. The cell lysate was mixed with 4 mL scintillation buffer (Emulsifier Safe, Perkin Elmer) and the radioactivity was detected in a β-counter (Tri-Carb 4810TR, Perkin Elmer). The activity for each compound is compared to that of isoproterenol.

Assay [2] has as its system L6-myotubes. The assay can be described thus: Glucose uptake in differentiated L6-myotubes (3H-2-deoxy-glucose). The following applies: read-out: Biological example 1: glucose uptake, activity compared to that of isoproterenol. The procedure: L6-myoblasts were grown in Dulbecco's Modified Eagle's Medium (DMEM) containing 4.5 g/l glucose supplemented with 10% fetal bovine serum, 2 mM L-Glutamine, 50 U/ml penicillin, 50 1.1g/ml streptomycin and 10 mM HEPES. Cells were plated at 1×10^5 cells per ml in 24-well plates. After reaching 90% confluence the cells were grown in medium containing 2% FBS for 7 days where upon cells differentiated into myotubes. Differentiated L6-myotubes were serum-starved over night in medium containing 0.5% fatty-acid free BSA and stimulated with agonist, final concentration 1×10^−5. After 1 h 40 min cells were washed with warm, glucose free medium or PBS and another portion of agonist was added to glucose free medium. After 20 min the cells were exposed to 50 nM ^3H-2-deoxy-glucose for another 10 min before washed in ice cold glucose free medium or PBS and lysed in 0.2 M NaOH for 1 h in 60° C.

In assay [3] the test system is Intracellular cAMP levels. The assay can be described thus: Measurement of intracellular cAMP levels in differentiated L6 cells (alpha screen cAMP kit). The following applies: Rattus norvegicus, L6, 0.25 h, read-out: Biological example 2: intracellular cAMP levels, activity compared to that of isoproterenol. The procedure: L6-myoblasts were grown in Dulbecco's Modified Eagle's Medium (DMEM) containing 4.5 g/l glucose supplemented with 10% fetal bovine serum, 2 mM L-Glutamine, 50 U/ml penicillin, 50 1.1g/ml streptomycin and 10 mM HEPES. Cells were plated at 1×10^5 cells per ml in 24-well plates. After reaching 90% confluence the cells were grown in medium containing 2% FBS for 7 days where upon cells differentiated into myotubes. Differentiated cells were serum-starved over night and stimulated with agonist, final concentration 1×10^−5 M, for 15 min in stimulation buffer (HBSS supplemented with 1% BSA, 5 mM HEPES and 1 mM IBMX, pH 7,4) The medium was then aspirated and to end the reaction 100 μL of 95% EtOH was added to each well of a 24-well plate and cells were kept in […] over night. The EtOH was let to evaporate and 5001 μof lysis buffer (1% BSA, 5 mM HEPES and 0.3% Tween-20, pH 7,4) was added to each well before put in −80° C. for 30 min and then kept in −20° C. Intracellular cAMP levels were detected using an alpha screen cAMP kit (6760635D from Perkin Elmer). The activity for each compound is compared to that of isoproterenol.

Where [4] appears, read: differentiated L6-myotubes, agonist final concentration 1×10^−5, 3H-2-deoxy-glucose uptake.
Where [5] appears, read: differentiated cells, agonist final concentration 1×10^−5 M, 15 min.

For `CC12CCC([C@H](O)c3cccc(F)c3)(CC1)N2` [Example 1, (R)-(3-Fluorophenyl)(4-methyl-7-azabicyclo[2.2.1]heptan-1-yl)methanol hydrochloride], the “Biological example 3: glucose uptake in the presence of the β2-antagonist ICI-118,551, activity compared to that of isoproterenol” value in assay [1] is “− (if it less than 25% it is denoted with)”. Besides, the Emax at 10 µM in assay [2] (setting [4]) was more than 75%; in assay [3] (setting [5]), less than 25%.
With `CC12CCC([C@H](O)c3ccccc3Cl)(CC1)N2` [Example 7, (R)-(2-Chlorophenyl)(4-methyl-7-azabicyclo[2.2.1]heptan-1-yl)methanol hydrochloride], the Emax at 10 µM is more than 75% in assay [2] (setting [4]) and less than 25% in assay [3] (setting [5]).
As to `CC12CCC([C@H](O)c3ccncc3F)(CC1)N2` [Example 11, (R)-(3-Fluoropyridin-4-yl)(4-methyl-7-azabicyclo[2.2.1]heptan-1-yl)-methanol], the Emax at 10 µM in assay [2] (setting [4]) and in assay [3] (setting [5]) was less than 25% in each case.
In the case of `CC12CCC([C@H](O)c3ccccc3F)(CC1)N2` [Example 3, (R)-(2-Fluorophenyl)(4-methyl-7-azabicyclo[2.2.1]heptan-1-yl)methanol hydrochloride], the Emax at 10 µM in assay [2] (setting [4]) is 50 to 75%; in assay [3] (setting [5]), less than 25%.
In the same order, the values of `CC12CCC([C@@H](O)c3cccc(Cl)c3)(CC1)N2` [Example 6, (S)-(3-Chlorophenyl)(4-methyl-7-azabicyclo[2.2.1]heptan-1-yl)methanol hydrochloride] are 25 to 50% and less than 25%.
In the case of `CC12CCC([C@@H](O)c3cccc(F)c3)(CC1)N2` [Example 2, (S)-(3-Fluorophenyl)(4-methyl-7-azabicyclo[2.2.1]heptan-1-yl)methanol hydrochloride], the “Biological example 3: glucose uptake in the presence of the β2-antagonist ICI-118,551, activity compared to that of isoproterenol” value in assay [1] is “− (if it less than 25% it is denoted with)”. The Emax at 10 µM in assay [2] (setting [4]) is more than 75%; in assay [3] (setting [5]) it was less than 25%.
Regarding `CCCC12CCC([C@@H](O)c3cccc(F)c3)(CC1)N2` [Example 14, (S)-(3-Fluorophenyl)(4-propyl-7-azabicyclo[2.2.1]heptan-1-yl)methanol hydrochloride], the Emax at 10 µM in assay [2] (setting [4]) and in assay [3] (setting [5]) was less than 25% each time.
As to `CC12CCC([C@@H](O)c3cncc(F)c3)(CC1)N2` [Example 10, (S)-(3-fluoropyridin-4-yl)(4-methyl-7-azabicydo[2.2.1]heptan-1-yl)-methanol], the Emax at 10 µM is 50 to 75% in assay [2] (setting [4]) and less than 25% in assay [3] (setting [5]).
`COCC12CCC([C@@H](O)c3cccc(F)c3)(CC1)N2` [Example 15, (S)-(3-Fluorophenyl)(4-(methoxymethyl)-7-azabicyclo[2.2.1]heptan-1-yl)methanol hydrochloride]: the Emax at 10 µM in assay [2] is 50 to 75%; in assay [3] it was less than 25%.
`CC12CCC([C@@H](O)c3ccccc3F)(CC1)N2` [Example 4, (S)-(2-Fluorophenyl)(4-methyl-7-azabicyclo[2.2.1]heptan-1-yl)methanol hydrochloride]: the Emax at 10 µM in assay [2] (setting [4]) was 25 to 50%; in assay [3] (setting [5]), less than 25%.
The corresponding values for `O[C@H](c1cccc(F)c1)C12CCC(COc3ccc(Cl)cc3)(CC1)N2` [Example 18, (R)-(4-((4-Chlorophenoxy)methyl)-7-azabicyclo[2.2.1]heptan-1-yl) (3-fluorophenyl)methanol] are more than 75% and less than 25%.
The corresponding values for `CC12CCC([C@H](O)c3cncc(F)c3)(CC1)N2` [Example 9, (R)-(3-fluoropyridin-4-yl)(4-methyl-7-azabicydo[2.2.1]heptan-1-yl)-methanol] are more than 75% and less than 25%.
In the case of `CC12CCC([C@H](O)c3cccc(Cl)c3)(CC1)N2` [Example 5, (R)-(3-Chlorophenyl)(4-methyl-7-azabicyclo[2.2.1]heptan-1-yl)methanol hydrochloride], the Emax at 10 µM in assay [2] (setting [4]) is more than 75%; in assay [3] (setting [5]) it was less than 25%.
On to `CCCC12CCC([C@H](O)c3cccc(F)c3)(CC1)N2` [Example 13, (R)-(3-Fluorophenyl)(4-propyl-7-azabicyclo[2.2.1]heptan-1-yl)methanol hydrochloride], for which the Emax at 10 µM in assay [2] (setting [4]) lay within 50 to 75%; in assay [3] (setting [5]) it was 25 to 50%.
Take `CC12CCC([C@@H](O)c3ccncc3F)(CC1)N2` [Example 12, (S)-(3-Fluoropyridin-4-yl)(4-methyl-7-azabicydo[2.2.1]heptan-1-yl)-methanol]: the Emax at 10 µM in assay [2] (setting [4]) and in assay [3] (setting [5]) was less than 25% in each case.
Consider `COCC12CCC([C@H](O)c3cccc(F)c3)(CC1)N2` [Example 16, (R)-(3-Fluorophenyl)(4-(methoxymethyl)-7-azabicyclo[2.2.1]heptan-1-yl)methanol hydrochloride], for which the “Biological example 3: glucose uptake in the presence of the β2-antagonist ICI-118,551, activity compared to that of isoproterenol” value in assay [1] is on record as “− (if it less than 25% it is denoted with)”. Also, the results for the Emax at 10 µM in assay [2] and in assay [3] were more than 75% and less than 25%, respectively.
As to `CC12CCC([C@@H](O)c3ccccc3Cl)(CC1)N2` [Example 8, (5)-(2-Chlorophenyl)(4-methyl-7-azabicyclo[2.2.1]heptan-1-yl)methanol hydrochloride], the Emax at 10 µM in assay [2] (setting [4]) is 25 to 50%; in assay [3] (setting [5]) it was less than 25%.
For the compound `O[C@@H](c1cccc(F)c1)C12CCC(COc3ccc(Cl)cc3)(CC1)N2` [Example 17, (S)-(4-((4-Chlorophenoxy)methyl)-7-azabicyclo[2.2.1]heptan-1-yl)(3-fluorophenyl)methanol], the Emax at 10 µM in assay [2] (setting [4]) is 50 to 75%; in assay [3] (setting [5]), less than 25%.
